According to US6376666B1 (Nauchno-Issledovatelsky Institut Farmakologii Rossiiskoi …, priority 1994, dated 2002):
Marks after values point to notes of the source that are not given here.

How the values were obtained:
Format in all cases: in vivo
[1] = system: ischemized myocardium of cats; assay: ST-segment elevation during 5 min occlusions of coronary artery (acute coronary deficiency); details: for change in mean elevation of ST-segment vs control occlusion: cats, 1.0 mg/kg i.v.
Procedure: These experiments were conducted in cats weighing 2,5-4,0 kg under anasthesia by i.v. injection of nembutal (40 mg/kg) in open chest conditions. Epicardium electrogram in 3-4 leads was registered in “Mingograph-81”. The value of mean elevation of ST-segment during 5 min occlusions of anterior left descending coronary artery with 15 min reperfusions between them was the main index of intensity of reversible ischemized damage of myocardium.
The statistical calculation was carried out with non-parametric Wilcocson method for associated variants.

Balb/c mice = assay: open-field test, Balb/c mice (passive type of emotional-stress reaction); details: i.p., screening
Source text: The main point of this approach consists in comparative analysis of the behavioural effects of tested compounds in two inbred strains of mice Balb/c and C57B1/6 with different hereditary types of emotional-stress reactions (ESR). The anxiolytic effect was estimated as the activation of the locomotor activity of animals with “passive” type of ESR (Balb/c mice). The main index describing the sedative properties of tested drugs was the inhibition of the locomotor activity of mice with “active” type of ESR (C57B1/6 strain). The anxioselectivity was evaluated according to coincidence of doses range which activated or inhibited the behavior of mice of different strains. Earlier this approach has been successfully used for estimation of anxioselective activity of such known drugs as phenazepam [Seredenin S. B. et al., Bull.Exp.Biol.Med., 1979, v.88, N7, p.38; Seredenin S. B. et al., Ann.Inst.Super.Sanita, 1990, v.26, N1, p.81-88], mexidol [Seredenin S. B. et al., Khimiko-Farmatsevt.Zhurnal, 1987, N2, p.134; Vironina T. A., Seredenin S. B., Ann.Inst.Super.Sanita, 1988, v.24, N3, p.461-466] and gidazepam [Seredenin S. B. et al., in: “Gidazepam” Kiev, Naukova Dumka, 1992, p.92; Seredenin S. B., Blednov Yu. A., Phys.Chem.Biol.Med., 1993, v.1, N1, p.53-60].
Male C57B1/6 and Balb/c mice (“Stolbovaya” animal farm), weighing 20-22 g were used. The animals were housed in a separate animal room in groups of ten and maintained on 12 h light-dark cycle (light from 8.00 till 20.00) with free access to standard food and water during two weeks before experiment. Testing was performed between 9.00 and 13.00. Every used compound was administered intraperitoneally in water solutions 30 min before testing (0,1 ml solution per 10 g of weight). The “open-field” apparatus consisted of cylinder closed from one end, illuminated by four 75 W lamps fixed to the walls 100 cm above the floor. The “open-field” apparatus was 100 cm in diameter and white-painted; the floor was marked with 3 black circles and some radial lines divided the floor into 16 peripheral and 8 central segments. 30 min after injection each animal was placed in the same peripheral square on the floor for 3 min of testing after 1 min exposure in the dark chamber. The following behavior variables were recorded: 1) the number of crossings in the peripheral area (peripheral activity); 2) the number of crossings in the central segments (central activity); 3) the number of rearings (vertical activity); 4) the emotionality was measured as the number of defecations during the test. The sum of all types of locomotor activity was marked as total activity. The t-Student test was used for statistical analysis.

cats = assay: hemodynamics and activity of intact heart in cats under anesthesia; details: for Cardiac volume, change from basal level / Heart rate, change from basal level / Mean blood flow accelaration (aortic), change from basal level / Mean blood pressure, change from basal level / Stroke volume, change from basal level: cats, 1.0 mg/kg i.v.
Procedure: The effects of compounds on the hemodynamics and activity of intact heart were studied in cats under anesthesia. The experiments were carried out under conditions of open chest. The phase curve of aortic blood flow was the main index of cardiac activity. The compounds were administered i.v. in physiological solution. The t-Student' test was used to estimate the statistical significance.

## CCOc1ccc2nc(SCCN(C)C)[nH]c2c1 [VIII]
[1]; occlusion 20 min after injection, 30 sec of occlusion
  change in mean elevation of ST-segment vs control occlusion: −0.45 mv
[1]; occlusion 20 min after injection, 1 min of occlusion
  change in mean elevation of ST-segment vs control occlusion: −0.30 mv
[1]; occlusion 20 min after injection, 2 min of occlusion
  change in mean elevation of ST-segment vs control occlusion: −0.50 mv
[1]; occlusion 20 min after injection, 4 min of occlusion
  change in mean elevation of ST-segment vs control occlusion: −0.50 mv
[1]; occlusion 20 min after injection, 5 min of occlusion
  change in mean elevation of ST-segment vs control occlusion: −0.25 mv
[1]; occlusion 40 min after injection, 15 sec of reperfusion
  change in mean elevation of ST-segment vs control occlusion: −0.75 mv
[1]; occlusion 40 min after injection, 30 sec of occlusion
  change in mean elevation of ST-segment vs control occlusion: −0.55 mv
[1]; occlusion 40 min after injection, 1 min of occlusion
  change in mean elevation of ST-segment vs control occlusion: −0.35 mv
[1]; occlusion 40 min after injection, 2 min of occlusion
  change in mean elevation of ST-segment vs control occlusion: −0.40 mv
[1]; occlusion 40 min after injection, 4 min of occlusion
  change in mean elevation of ST-segment vs control occlusion: −0.50 mv
[1]; occlusion 40 min after injection, 5 min of occlusion
  change in mean elevation of ST-segment vs control occlusion: −0.85 mv
[1]; occlusion immediately after injection, 15 sec of reperfusion
  change in mean elevation of ST-segment vs control occlusion: −0.40 mv
[1]; occlusion immediately after injection, 30 sec of occlusion
  change in mean elevation of ST-segment vs control occlusion: −1.20* mv
[1]; occlusion immediately after injection, 1 min of occlusion
  change in mean elevation of ST-segment vs control occlusion: −0.90* mv
[1]; occlusion immediately after injection, 2 min of occlusion
  change in mean elevation of ST-segment vs control occlusion: −1.25* mv
[1]; occlusion immediately after injection, 4 min of occlusion
  change in mean elevation of ST-segment vs control occlusion: −0.70 mv
[1]; occlusion immediately after injection, 5 min of occlusion
  change in mean elevation of ST-segment vs control occlusion: −0.80 mv
[1]; cats, 1,0 mg/kg i.v.
  effect on mean elevation of ST-segment during 5 min occlusion, in words: decreased the mean elevation of ST-segment
Balb/c mice
  effect on the behavior (locomotor activity) of Balb/c mice in open-field test, in words: neither activatory nor inhibitory effects
cats; cats i.v., same doses as bradycardia
  effect on contractile function of heart, in words: slightly enhanced the contractility of myocardium
cats; cats i.v., VIII 1,0, IX 0,5 and 1,0, XX 1,0 and 2,0 mg/kg
  duration of bradycardia after administration: 30 min
cats; cats i.v., VIII 1,0, IX 0,5 and 1,0, XX 1,0 and 2,0 mg/kg, XXIII 1.0, verapamil 0.5 mg/kg
  effect on heart rate, in words: expressed bradycardia
cats; after 2 min
  Cardiac volume, change from basal level: +7.0 ± 2.9%
  Heart rate, change from basal level: −10.9 ± 2.3 %
  Mean blood flow accelaration (aortic), change from basal level: +3.3 ± 2.7%
  Mean blood pressure, change from basal level: −1.8 ± 3.8%
  Stroke volume, change from basal level: +20.6 ± 6.5 %
cats; after 5 min
  Cardiac volume, change from basal level: +6.0 ± 12.8%
  Heart rate, change from basal level: −3.2 ± 1.4%
  Mean blood flow accelaration (aortic), change from basal level: −2.0 ± 9.0%
  Mean blood pressure, change from basal level: −2.8 ± 5.7%
  Stroke volume, change from basal level: +5.6 ± 10.8%
cats; after 10 min
  Cardiac volume, change from basal level: −7.5 ± 9.6%
  Heart rate, change from basal level: −4.4 ± 1.9%
  Mean blood flow accelaration (aortic), change from basal level: −5.2 ± 7.8%
  Mean blood pressure, change from basal level: −7.8 ± 5.7%
  Stroke volume, change from basal level: −3.5 ± 8.7%
cats; after 20 min
  Cardiac volume, change from basal level: −7.2 ± 9.2%
  Heart rate, change from basal level: −3.2 ± 1.8%
  Mean blood flow accelaration (aortic), change from basal level: −6.2 ± 7.6%
  Mean blood pressure, change from basal level: −12.0 ± 5.0%
  Stroke volume, change from basal level: −4.5 ± 8.4%
cats; after 30 min
  Cardiac volume, change from basal level: −2.2 ± 3.0%
  Heart rate, change from basal level: −5.4 ± 3.1%
  Mean blood flow accelaration (aortic), change from basal level: +1.2 ± 2.1%
  Mean blood pressure, change from basal level: −6.5 ± 5.7%
  Stroke volume, change from basal level: +3.5 ± 3.5%
cats; after injection
  Cardiac volume, change from basal level: 38.1 ± 11.6 %
  Heart rate, change from basal level: −15.3 ± 1.1 %
  Mean blood flow accelaration (aortic), change from basal level: +31.3 ± 10.8%
  Mean blood pressure, change from basal level: −14.8 ± 12.5%
  Stroke volume, change from basal level: 63.2 ± 14.0 %
